Measured values: US11214803B2, “Modulators of YAP1 expression” (Ionis Pharmaceuticals, Inc., priority 2019, dated 2022)
Strand notation (5' to 3'): a small letter for the sugar, then the base; units joined by * are phosphorothioate-linked, units joined directly phosphodiester-linked; [ ] holds rarer units or linkages, { } end groups; capitals alone tell only the bases. e = 2'-O-(2-methoxyethyl) (MOE); k = constrained ethyl (cEt); [5mC] = 5-methylcytosine; d = 2'-deoxy (DNA); m = 2'-O-methyl

System: Yap1 mRNA
Experiment: Antisense inhibition of human Yap1 in SNU-449 cells by modified oligonucleotides, single dose (Example 5, RTS36584)
Format: cell-based
Settings: Table 39; SNU-449 cells, 10,000 cells per well, free uptake, 2,000 nM oligonucleotide, approx. 48 hours; RTS36584; normalized to RIBOGREEN; Yap1 mRNA relative to untreated control
In short: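 Values are % of untreated control: Yap1 mRNA by quantitative RT-PCR (RTS36584), normalized to RIBOGREEN total RNA. Oligonucleotides were dosed at 2,000 nM, free uptake, in SNU-449 cells, with roughly 48 h exposure before RNA isolation.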

Substance	YAP1 (% UTC)
1198373 (kA*dA*dA*dT*dT*dG*dT*d[5mC]*dT*d[5mC]*dA*kT*eG*k[5mC]*e[5mC]*kT; antisense) [Compound 1198373]	40
1198370 (kT*dG*dT*d[5mC]*dT*d[5mC]*dA*dT*dG*d[5mC]*d[5mC]*kT*eT*kA*eT*kA; antisense) [Compound 1198370]	20
1198414 (kA*dT*dT*dT*dA*dG*dG*dA*dT*dG*d[5mC]*kA*eT*kG*eG*kT) [Compound 1198414]	20
1198379 (kA*dG*dT*dA*dT*dG*dT*dG*dG*d[5mC]*dA*kA*eT*kA*eA*kT) [Compound 1198379]	45
1198393 (kT*dT*dA*d[5mC]*dA*dT*dT*dA*dG*dG*dA*kA*e[5mC]*kA*eA*kG; antisense) [Compound 1198393]	58

Same assay, conditions: Table 40 (separate experiment); SNU-449 cells, 10,000 cells per well, free uptake, 2,000 nM oligonucleotide, approx. 48 hours; RTS36584; normalized to RIBOGREEN; Yap1 mRNA relative to untreated control

Substance	YAP1 (% UTC)
1198442 (kT*dA*dA*dA*dG*dT*dG*dT*dA*dT*dG*kT*e[5mC]*kA*eG*kA; antisense) [Compound 1198442]	44
1198755 (kT*eG*k[5mC]*dT*dT*dT*dG*dG*dA*dA*dG*dA*eT*e[5mC]*kT*kG) [Compound 1198755]	32
1198753 (k[5mC]*eT*kT*dT*dG*dG*dA*dA*dG*dA*dT*d[5mC]*eT*eG*kA*kA; antisense) [Compound 1198753]	58

Same assay, conditions: Table 41; SNU-449 cells, 10,000 cells per well, free uptake, 2,000 nM modified oligonucleotide, approximately 48 hours; RTS36584; normalized to RIBOGREEN; Yap1 mRNA relative to untreated control cells

Substance	YAP1 (% UTC)
1198737 (k[5mC]*eT*kG*dA*dG*dG*dT*dA*dT*dA*dA*d[5mC]*eT*eG*kG*kG; antisense) [Compound 1198737]	24
1198790 (antisense kT*eA*kA*dA*dG*dT*dG*dT*dA*dT*dG*dT*e[5mC]*eA*kG*kA) [Compound 1198790]	27

Same assay, conditions: Table 42 (separate experiment); SNU-449 cells, 10,000 cells per well, free uptake, 2,000 nM modified oligonucleotide, approximately 48 hours; RTS36584; normalized to RIBOGREEN; Yap1 mRNA relative to untreated control cells

Substance	YAP1 (% UTC)
1198705 (kT*kA*dA*dG*dG*dT*dT*dT*d[5mC]*d[5mC]*d[5mC]*dA*kG*eA*kT*eT; antisense) [Compound 1198705]	70
1198201 (kA*kA*dA*dT*dT*dG*dT*d[5mC]*dT*d[5mC]*dA*eT*eG*e[5mC]*k[5mC]*kT; antisense) [Compound 1198201]	34
1198694 (antisense kT*kA*dT*dG*dT*dA*dA*dT*dA*dT*dT*dG*k[5mC]*eA*kA*eT) [Compound 1198694]	110
1198215 (kT*k[5mC]*dT*dA*dT*dA*dT*dT*dA*dG*dA*eG*eT*eA*kT*kG; antisense) [Compound 1198215]	120

Same assay, conditions: Table 43 experiment; SNU-449 cells, 10,000 cells per well, free uptake, 2,000 nM, approximately 48 hours; RTS36584; Yap1 mRNA normalized to RIBOGREEN, relative to untreated control cells

Substance	YAP1 (% UTC)
1198468 (antisense kT*kT*dA*dG*dA*dG*dT*dA*dT*dG*dT*eG*kG*e[5mC]*kA*eA) [Compound 1198468]	22
1198482 (antisense kA*k[5mC]*dT*dT*dT*dT*dA*d[5mC]*dA*dT*dT*eA*kG*eG*kA*eA) [Compound 1198482]	63
1198485 (antisense kA*kG*d[5mC]*dA*d[5mC]*dT*dT*dT*dT*dA*d[5mC]*eA*kT*eT*kA*eG) [Compound 1198485]	64

Same assay, conditions: Table 45; Yap1 mRNA as percent of untreated control, SNU-449 cells, single dose

Substance	YAP1 (% UTC)
1198928 (kG*kT*dG*d[5mC]*dT*dT*dT*dG*dG*dA*dA*kG*dA*kT*d[5mC]*kT; antisense) [Compound 1198928]	28
1198897 (kA*kT*dG*dG*dA*dA*dA*dT*dT*dG*dT*k[5mC]*dT*k[5mC]*dA*kT; antisense) [Compound 1198897]	61
1198898 (kA*kT*dA*dT*dG*dG*dA*dA*dA*dT*dT*kG*dT*k[5mC]*dT*k[5mC]; antisense) [Compound 1198898]	53
1198913 (kT*kT*dA*d[5mC]*dA*dT*dT*dA*dG*dG*dA*kA*d[5mC]*kA*dA*kG; antisense) [Compound 1198913]	86
1198896 (kT*kG*dG*dA*dA*dA*dT*dT*dG*dT*d[5mC]*kT*d[5mC]*kA*dT*kG; antisense) [Compound 1198896]	59
1198894 (kG*kA*dA*dA*dT*dT*dG*dT*d[5mC]*dT*d[5mC]*kA*dT*kG*d[5mC]*k[5mC]; antisense) [Compound 1198894]	57
1198949 (kA*kT*dT*dG*d[5mC]*dA*dA*dT*d[5mC]*dT*dG*kT*d[5mC]*kT*dG*kA; antisense) [Compound 1198949]	61

Same assay, conditions: Table 46; Yap1 mRNA as percent of untreated control, SNU-449 cells, single dose

Substance	YAP1 (% UT)
1198814 (antisense kA*kG*dA*dG*dT*dA*dT*dG*dT*dG*dG*k[5mC]*eA*kA*eT*kA) [Compound 1198814]	13
1198871 (kT*kT*dT*dA*dT*dG*dT*dA*dA*dT*dA*kT*eT*kG*e[5mC]*kA; antisense) [Compound 1198871]	77
1198829 (k[5mC]*kT*dT*dT*dT*dA*d[5mC]*dA*dT*dT*dA*kG*eG*kA*eA*k[5mC]; antisense) [Compound 1198829]	36
1095427 (antisense k[5mC]*kA*d[5mC]*dT*dG*dA*dG*dG*dT*dA*dT*kA*eA*k[5mC]*eT*kG) [Compound 1095427]	45
1198840 (kG*k[5mC]*dT*dT*dT*dG*dG*dA*dA*dG*dA*kT*e[5mC]*kT*eG*kA; antisense) [Compound 1198840]	26

Same assay, conditions: Table 48; Yap1 mRNA level relative to untreated control; modified oligonucleotides targeting SEQ ID NO.: 1 and 2

Substance	YAP1 (% UT)
1198315 (kT*kT*kA*dA*dG*d[5mC]*dA*d[5mC]*dT*dT*dT*dT*kA*e[5mC]*kA*eT; antisense) [Compound 1198315]	85

Same assay, conditions: Table 49; Yap1 mRNA level relative to untreated control; modified oligonucleotides targeting SEQ ID NO.: 1 and 2

Substance	YAP1 (% UT)
1198543 (antisense kA*kT*kT*dG*dT*d[5mC]*dT*d[5mC]*dA*dT*dG*d[5mC]*k[5mC]*kT*kT*eA) [Compound 1198543]	15
1198571 (antisense kA*kG*k[5mC]*dA*d[5mC]*dT*dT*dT*dT*dA*d[5mC]*dA*kT*kT*kA*eG) [Compound 1198571]	32

Same assay, conditions: Table 50; Yap1 mRNA remaining as percent of untreated control (UT), SNU-449 cells, single dose

Substance	YAP1 (% UT)
1197281 (kA*kT*kT*dG*mU*d[5mC]*dT*dC*dA*dT*dG*d[5mC]*d[5mC]*kT*kT*kA; antisense) [Compound 1197281]	42
1198593 (antisense kT*kT*kA*dT*dA*dT*dG*dG*dT*dT*dT*dT*kG*kT*kG*eT) [Compound 1198593]	45
1198625 (kG*kA*k[5mC]*dT*dA*dA*dG*dT*dA*dA*dG*dG*kT*kT*kT*e[5mC]; antisense) [Compound 1198625]	64

Same assay, conditions: Table 51; Yap1 mRNA remaining as percent of untreated control (UT), SNU-449 cells, single dose

Substance	YAP1 (% UT)
1197272 (^{m}C_{ks}T_{ks}T_{ks}T_{ds}A_{ys}A_{ds}A_{ds}G_{ds}T_{ds}G_{ds}T_{ds}A_{ds}T_{ds}G_{ks}T_{ks}^{m}C_{k}; as printed in the source, key not given here) [Compound 1197272]	32
1197251 (antisense kT*kT*kT*dG*mG*dA*dA*dG*dA*dT*d[5mC]*dT*dG*kA*kA*kA) [Compound 1197251]	74
1197242 (antisense k[5mC]*kA*k[5mC]*dT*mG*dA*dG*dG*dT*dA*dT*dA*dA*k[5mC]*kT*kG) [Compound 1197242]	46
1197277 (kA*k[5mC]*kT*dA*mA*dG*dT*dA*dA*dG*dG*dT*dT*kT*k[5mC]*k[5mC]) [Compound 1197277]	23

Same assay, conditions: Yap1 mRNA, percent of untreated control; modified oligonucleotides targeting SEQ ID NO: 1 and 2; Table 47

Substance	YAP1 (% UT)
1197178 (antisense kA*kA*kT*dT*dG*dT*d[5mC]*dT*d[5mC]*dA*dT*dG*d[5mC]*k[5mC]*kT*kT) [Compound 1197178]	12
1197206 (antisense kA*kT*kA*dT*dT*dG*d[5mC]*dA*dA*dT*d[5mC]*dT*dG*kT*k[5mC]*kT) [Compound 1197206]	63
